Data set [1] deals with mammary and salivary carcinomas. The conditions noted are these: daily administration; ras transgenic mice; cited from earlier work.
In data set [2] the test system is human lung carcinoma with K-ras mutation and p53 deletion. To be noted: nude mice; cited from earlier work.
For data set [3], the system named is human colon carcinoma xenografts. To be noted: 100 mg/kg; human colon carcinoma xenografts in nude mice; cited from earlier work. A general note: A xenograft is tissue or cells of one species grown in another, often human tumour cells in immunodeficient mice.
Data set [4] concerns EJ-1 human bladder carcinoma. The conditions noted are these: 100 mg/kg; EJ-1 human bladder carcinoma xenograft in nude mice; cited from earlier work.
Data set [5] relates to HT1080 human fibrosarcoma. To be noted: 100 mg/kg; HT1080 human fibrosarcoma xenograft in nude mice; cited from earlier work.
Data set [6] deals with T1, SF9 affinity purified rat FPT (Rattus norvegicus, UniProt Q02293+Q04631).
T1 construct: made in house; host or cells: Sf9 insect cells
The data set is described as follows: PFT (farnesyl protein transferase) inhibitory activity, radiolabeled farnesyl pyrophosphate / biotinyl peptide bead assay. To be noted: average of two tests unless n is given in parentheses; read-out: FTase, IC50. It is filed as biochemical. The gist of the method: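 Rat FPT, affinity-purified from SF9 cells, was run at 30° C. for 30 min in HEPES pH 7.4 with 5 mM potassium phosphate, 20 μM ZnCl2, 5 mM DTT, 5 mM MgCl2 and 0.1% PEG 8000; the assay was also run without phosphate. Substrates were [3H]farnesyl pyrophosphate (134 nM) and biotinyl-Ahe-TKCVIM peptide (0.2 μM). Product was captured on streptavidin beads and counted.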

As for `CC[C@H](C)[C@@H](CO[C@@H](Cc1ccccc1)C(=O)N[C@@H](CCS(C)(=O)=O)C(=O)OC(C)C)NC[C@@H](N)CS` [L-744,832], the tumor regression result in data set [1] is reported as “caused tumor regression”.

With `CSCC[C@H](NC(=O)c1ccc(NC[C@@H](N)CS)cc1-c1ccccc1)C(=O)O` [FTI276], in data set [2], the tumor growth entry is reported as “selectively block tumor growth”.

Turning to `COC(=O)[C@H](CCSC)NC(=O)[C@H](/C=C\[C@@H](/C=C/[C@@H](N)CS)C(C)C)Cc1ccccc1` [Example B1086], the tumor growth entry in data set [3], in data set [4] and in data set [5] was “inhibit tumor growth” throughout.

`CCN(CC)C(=O)c1ccc(C=C2CCc3cc(OCCc4c[nH]cn4)ccc3C2=O)cc1.Cl` [Example 34, N,N-Diethyl-4-{6-[2-(1H-imidazole-4-yl)-ethoxy]-1-oxo-3,4-dihydro-1H-naphthalen-2-ylidenemethyl}-benzamide, monohydrochloride]: the melting point lay within 211 to 213 °C. In addition, the IC50 in data set [6] worked out at 12200 nM.

The molecule `O=C1C(=Cc2ccccc2)CCc2cc(OCCc3c[nH]cn3)ccc21` [Example 30, 2-Benzylidene-6-[2-(1H-imidazole-4-yl)-ethoxy]-3,4-dihydro-2H-naphthalen-1-one] returned a melting point of 53 to 56 °C. Also, in data set [6], the concentration for half-maximal inhibition (IC50) is 890 nM.

`Cc1ccc(C=C2CCc3cc(OCCc4c[nH]cn4)ccc3C2=O)s1` [Example 37, 6-[2-(1H-Imidazole-4-yl)-ethoxy]-2-(5-methyl-thiophen-2-ylmethylene)-3,4-dihydro-2H-naphthalen-1-one] showed a melting point of 69 to 70 °C. In addition, in data set [6], the IC50 was 490 nM.

`O=C1C(=Cc2cccs2)CCc2cc(OCCn3ccnc3)ccc21` [Example 14, 6-(2-Imidazole-1-yl-ethoxy)-2-thiophen-2-ylmethylene-3,4-dihydro-2H-naphthalen-1-one] displayed a melting point of 137 to 138 °C. For the same molecule, in data set [6], the IC50 was determined as 89 nM.

`O=C1C(=Cc2ccsc2)CCc2cc(OCCc3c[nH]cn3)ccc21` [Example 28, 6-[2-(1H-Imidazole-4-yl)-ethoxy]-2-thiophen-3-ylmethylene-3,4-dihydro-2H-naphthalen-1-one] gave a melting point of 94 to 96 °C. Also, in data set [6], the concentration for half-maximal inhibition (IC50) came to 170 nM.

`O=C1C(=Cc2cccc3ccccc23)CCc2cc(OCCn3ccnc3)ccc21` [Example 15, 6-(2-Imidazole-1-yl-ethoxy)-2-naphthalen-1-ylmethylene-3,4-dihydro-2H-naphthalen-1-one] showed a melting point of 147 to 148 °C. Further, the half-inhibitory concentration (IC50) in data set [6] turned out to be 1300 nM.

For orientation: melting point means the temperature of the solid-liquid transition. The term IC50 denotes the concentration needed to halve the response being measured.

Source of the values: patent US6528535B2, “Bicyclic inhibitors of protein farnesyl transferase” (Warner-Lambert Company, priority 1997, dated 2003).
